Experimental data as given in ChEMBL document CHEMBL1124305, “Synthesis and immunological evaluation of N-terminal, noncrossreactive tachykinin antigens” (J Med Chem, 1988).
Calls of active or inactive are those of the source. No cut-off for these calls is given here.

Key:
Format in all cases: functional, organism-based
Mus musculus [1] = species: Mus musculus; assay: Determination of serum specificity with immunogen 1-MBSA in ELISA against the respective tachykinins of mice; - indicates Nondetectable interaction
Mus musculus [2] = species: Mus musculus; assay: Determination of serum specificity with immunogen 2-MBSA in ELISA against the respective tachykinins of mice; +++ indicates Strong recognition
Mus musculus [3] = species: Mus musculus; assay: Determination of serum specificity with immunogen 3-MBSA in ELISA against the respective tachykinins of mice; - indicates Nondetectable interaction

CSCC[C@H](NC(=O)[C@H](CC(C)C)NC(=O)CNC(=O)[C@@H](NC(=O)[C@H](Cc1ccccc1)NC(=O)[C@H](CO)NC(=O)[C@H](CC(=O)O)NC(=O)[C@@H](NC(=O)[C@H](CCCCN)NC(=O)[C@@H](N)Cc1c[nH]cn1)[C@@H](C)O)C(C)C)C(N)=O
Specificity (Mus musculus [1]): inactive
Specificity (Mus musculus [2]): Active
Specificity (Mus musculus [3]): inactive
